Our source for the TGI and GI50 values is PubChem BioAssay (NCI).

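Cultured in 96-well plates, cells were exposed to test compound for 48 hours across five concentrations. Here, GI50 denotes the concentration required for 50% inhibition of growth. TGI: total growth inhibition.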

The first assay concerns SN12C renal. Put plainly: inhibition of tumour cell growth, NCI panel, 48 h.
`Cc1ccccc1S(=O)(=O)OC1NS(=O)(=O)c2ccccc21` (stereo not given) yielded a TGI above 100 µM.
As to `O=C(Nc1ccc(Cl)cc1)c1cccc(NC2=C(Cl)C(=O)N(Cc3ccccc3)C2=O)c1`, the GI50 is 7.79 µM and the TGI came to 24.2 µM.
The corresponding values for `CC[C@H](Nc1ncnc2nc[nH]c12)c1oc2ccccc2c(=O)c1-c1cccc(F)c1` are 19.7 µM and above 100 µM.
In turn, `COc1cc(NCc2ccc3oc(=O)c(-c4ccccc4)nc3c2)cc(OC)c1OC` gave a TGI above 10 µM.
Regarding `COc1ccc(-c2nnc(COc3ccc(NC(=O)Nc4cc(C(F)(F)F)cc(C(F)(F)F)c4)cc3F)o2)cc1`, the GI50 was 1.93 µM and the TGI was determined as 5.39 µM.
Regarding `COC1=CC(=O)C(C2CC(=O)c3c(O)cc(O)cc3O2)=CC1=O` (stereo not given), the TGI was 37.4 µM.
`COc1cc(/C=C/c2cc(O)c(C(C)=O)c(O)c2)cc2c1O[C@]1(C)CC[C@@H](O)C(C)(C)[C@H]1C2`: the GI50 is 9.07 µM and the TGI stood at 72.8 µM.
In the same order, the values of `Cc1cc2c(cc1Cl)SC(N(N(C)C)S(=O)(=O)c1ccc(Cl)cc1)=NS2(=O)=O` are 24.3 µM and 72 µM.
As to `Nc1ncnc2n[nH]c(Nc3ccc(F)cc3)c12`, the GI50 is 35.6 µM and the TGI is above 100 µM.
In the same order, the values of `Cc1cc(I)cc(CN(C)CCCN2CCCCC2)c1O` are 49.9 µM and above 100 µM.
Consider `CC(C)(C)OC(=O)N[C@H]1CC2(C=C(Cl)C(=O)C(Cl)=C2)OC1=O`, for which the TGI was 33.3 µM.
Consider `COc1cccc(-c2nc(-c3ccc(NC(=O)C(C)C)cc3)[nH]c2-c2ccnc(Br)c2)c1`, for which the GI50 is 3.31 µM and the TGI is above 100 µM.
In the same order, the values of `O=C(CSc1ccc(Cl)cc1)Nc1ccc(-c2nc3ccccc3s2)c(Cl)c1` are 3.57 µM and 72.8 µM.

Another assay concerns ACHN renal. Put plainly: inhibition of tumour cell growth, NCI panel, 48 h.
With `Cc1ccccc1S(=O)(=O)OC1NS(=O)(=O)c2ccccc21` (stereo not given), the TGI was above 100 µM.
For the molecule `O=C(Nc1ccc(Cl)cc1)c1cccc(NC2=C(Cl)C(=O)N(Cc3ccccc3)C2=O)c1`, the GI50 was 14.4 µM and the TGI stood at 27.5 µM.
In the same order, the values of `CC[C@H](Nc1ncnc2nc[nH]c12)c1oc2ccccc2c(=O)c1-c1cccc(F)c1` are 21.6 µM and above 100 µM.
In turn, `COc1cc(NCc2ccc3oc(=O)c(-c4ccccc4)nc3c2)cc(OC)c1OC` registered a TGI above 10 µM.
In the case of `COc1ccc(-c2nnc(COc3ccc(NC(=O)Nc4cc(C(F)(F)F)cc(C(F)(F)F)c4)cc3F)o2)cc1`, the GI50 is 2.54 µM and the TGI came out at 10.1 µM.
`COC1=CC(=O)C(C2CC(=O)c3c(O)cc(O)cc3O2)=CC1=O` (stereo not given) yielded a TGI of 29.7 µM.
Consider `COc1cc(/C=C/c2cc(O)c(C(C)=O)c(O)c2)cc2c1O[C@]1(C)CC[C@@H](O)C(C)(C)[C@H]1C2`, for which the GI50 was 10.5 µM and the TGI is 78.3 µM.
In the same order, the values of `Cc1cc2c(cc1Cl)SC(N(N(C)C)S(=O)(=O)c1ccc(Cl)cc1)=NS2(=O)=O` are 32.1 µM and above 100 µM.
In the same order, the values of `Nc1ncnc2n[nH]c(Nc3ccc(F)cc3)c12` are 5.46 µM and above 100 µM.
In the same order, the values of `Cc1cc(I)cc(CN(C)CCCN2CCCCC2)c1O` are 17.3 µM and 37.3 µM.
As for `CC(C)(C)OC(=O)N[C@H]1CC2(C=C(Cl)C(=O)C(Cl)=C2)OC1=O`, the TGI was 28.2 µM.
Take `COc1cccc(-c2nc(-c3ccc(NC(=O)C(C)C)cc3)[nH]c2-c2ccnc(Br)c2)c1`: the GI50 was 2.74 µM and the TGI was above 100 µM.
The corresponding values for `O=C(CSc1ccc(Cl)cc1)Nc1ccc(-c2nc3ccccc3s2)c(Cl)c1` are 4.09 µM and 36.9 µM.

The next assay deals with SK-OV-3 ovarian. Kind of assay: inhibition of tumour cell growth, NCI panel, 48 h.
`Cc1ccccc1S(=O)(=O)OC1NS(=O)(=O)c2ccccc21` (stereo not given) came in with a TGI above 100 µM.
On to `O=C(Nc1ccc(Cl)cc1)c1cccc(NC2=C(Cl)C(=O)N(Cc3ccccc3)C2=O)c1`, for which the GI50 was 29.6 µM and the TGI is above 100 µM.
The corresponding values for `CC[C@H](Nc1ncnc2nc[nH]c12)c1oc2ccccc2c(=O)c1-c1cccc(F)c1` are 24.1 µM and above 100 µM.
As for `COc1cc(NCc2ccc3oc(=O)c(-c4ccccc4)nc3c2)cc(OC)c1OC`, the TGI is above 10 µM.
For the molecule `COc1ccc(-c2nnc(COc3ccc(NC(=O)Nc4cc(C(F)(F)F)cc(C(F)(F)F)c4)cc3F)o2)cc1`, the GI50 is 3.76 µM and the TGI came out at 12.7 µM.
`COC1=CC(=O)C(C2CC(=O)c3c(O)cc(O)cc3O2)=CC1=O` (stereo not given) displayed a TGI above 93.9 µM.
`COc1cc(/C=C/c2cc(O)c(C(C)=O)c(O)c2)cc2c1O[C@]1(C)CC[C@@H](O)C(C)(C)[C@H]1C2`: the GI50 was 9.58 µM and the TGI was determined as 79.1 µM.
The corresponding values for `Cc1cc2c(cc1Cl)SC(N(N(C)C)S(=O)(=O)c1ccc(Cl)cc1)=NS2(=O)=O` are 33.8 µM and above 100 µM.
In the case of `Nc1ncnc2n[nH]c(Nc3ccc(F)cc3)c12`, the GI50 is 6.93 µM and the TGI is above 100 µM.
In the same order, the values of `Cc1cc(I)cc(CN(C)CCCN2CCCCC2)c1O` are 15.7 µM and 31.6 µM.
`CC(C)(C)OC(=O)N[C@H]1CC2(C=C(Cl)C(=O)C(Cl)=C2)OC1=O` came in with a TGI above 46.4 µM.
With `COc1cccc(-c2nc(-c3ccc(NC(=O)C(C)C)cc3)[nH]c2-c2ccnc(Br)c2)c1`, the GI50 is 3.66 µM and the TGI was above 100 µM.
Turning to `O=C(CSc1ccc(Cl)cc1)Nc1ccc(-c2nc3ccccc3s2)c(Cl)c1`, the GI50 was 13.7 µM and the TGI turned out to be 44.1 µM.

A further assay relates to COLO 205 colon. Put plainly: inhibition of tumour cell growth, NCI panel, 48 h.
Consider `Cc1ccccc1S(=O)(=O)OC1NS(=O)(=O)c2ccccc21` (stereo not given), for which the TGI was above 100 µM.
As for `O=C(Nc1ccc(Cl)cc1)c1cccc(NC2=C(Cl)C(=O)N(Cc3ccccc3)C2=O)c1`, the GI50 is 21.7 µM and the TGI is above 100 µM.
Turning to `CC[C@H](Nc1ncnc2nc[nH]c12)c1oc2ccccc2c(=O)c1-c1cccc(F)c1`, the GI50 was 37.4 µM and the TGI was above 100 µM.
The molecule `COc1cc(NCc2ccc3oc(=O)c(-c4ccccc4)nc3c2)cc(OC)c1OC` showed a TGI above 10 µM.
As to `COc1ccc(-c2nnc(COc3ccc(NC(=O)Nc4cc(C(F)(F)F)cc(C(F)(F)F)c4)cc3F)o2)cc1`, the GI50 is 1.9 µM and the TGI amounted to 3.3 µM.
Take `COC1=CC(=O)C(C2CC(=O)c3c(O)cc(O)cc3O2)=CC1=O` (stereo not given): the TGI came to 32.3 µM.
In the case of `COc1cc(/C=C/c2cc(O)c(C(C)=O)c(O)c2)cc2c1O[C@]1(C)CC[C@@H](O)C(C)(C)[C@H]1C2`, the GI50 was 16.1 µM and the TGI stood at 68.3 µM.
The corresponding values for `Cc1cc2c(cc1Cl)SC(N(N(C)C)S(=O)(=O)c1ccc(Cl)cc1)=NS2(=O)=O` are 44 µM and above 100 µM.
The corresponding values for `Nc1ncnc2n[nH]c(Nc3ccc(F)cc3)c12` are 17.3 µM and 66.1 µM.
In the same order, the values of `Cc1cc(I)cc(CN(C)CCCN2CCCCC2)c1O` are 13.7 µM and 27.3 µM.
`CC(C)(C)OC(=O)N[C@H]1CC2(C=C(Cl)C(=O)C(Cl)=C2)OC1=O` displayed a TGI of 14.9 µM.
Consider `COc1cccc(-c2nc(-c3ccc(NC(=O)C(C)C)cc3)[nH]c2-c2ccnc(Br)c2)c1`, for which the GI50 was 2.81 µM and the TGI came out at 7.59 µM.
`O=C(CSc1ccc(Cl)cc1)Nc1ccc(-c2nc3ccccc3s2)c(Cl)c1`: the GI50 is 2.88 µM and the TGI came out at 9.24 µM.

The next assay relates to KM12 colon. Put plainly: inhibition of tumour cell growth, NCI panel, 48 h.
In turn, `Cc1ccccc1S(=O)(=O)OC1NS(=O)(=O)c2ccccc21` (stereo not given) registered a TGI above 100 µM.
As for `O=C(Nc1ccc(Cl)cc1)c1cccc(NC2=C(Cl)C(=O)N(Cc3ccccc3)C2=O)c1`, the GI50 was 48.5 µM and the TGI is above 100 µM.
On to `CC[C@H](Nc1ncnc2nc[nH]c12)c1oc2ccccc2c(=O)c1-c1cccc(F)c1`, for which the GI50 is 23.7 µM and the TGI is above 100 µM.
Take `COc1cc(NCc2ccc3oc(=O)c(-c4ccccc4)nc3c2)cc(OC)c1OC`: the TGI is above 10 µM.
Regarding `COc1ccc(-c2nnc(COc3ccc(NC(=O)Nc4cc(C(F)(F)F)cc(C(F)(F)F)c4)cc3F)o2)cc1`, the GI50 was 1.51 µM and the TGI amounted to 3.7 µM.
As to `COC1=CC(=O)C(C2CC(=O)c3c(O)cc(O)cc3O2)=CC1=O` (stereo not given), the TGI was found to be 32.2 µM.
As to `COc1cc(/C=C/c2cc(O)c(C(C)=O)c(O)c2)cc2c1O[C@]1(C)CC[C@@H](O)C(C)(C)[C@H]1C2`, the GI50 was 5.41 µM and the TGI stood at 45.4 µM.
The corresponding values for `Cc1cc2c(cc1Cl)SC(N(N(C)C)S(=O)(=O)c1ccc(Cl)cc1)=NS2(=O)=O` are 22.9 µM and above 100 µM.
As to `Nc1ncnc2n[nH]c(Nc3ccc(F)cc3)c12`, the GI50 is 20.3 µM and the TGI came to 86.3 µM.
In the case of `Cc1cc(I)cc(CN(C)CCCN2CCCCC2)c1O`, the GI50 is 16.5 µM and the TGI turned out to be 39.6 µM.
The molecule `CC(C)(C)OC(=O)N[C@H]1CC2(C=C(Cl)C(=O)C(Cl)=C2)OC1=O` showed a TGI of 32 µM.
With `COc1cccc(-c2nc(-c3ccc(NC(=O)C(C)C)cc3)[nH]c2-c2ccnc(Br)c2)c1`, the GI50 was 2.96 µM and the TGI was above 100 µM.
The corresponding values for `O=C(CSc1ccc(Cl)cc1)Nc1ccc(-c2nc3ccccc3s2)c(Cl)c1` are 3.66 µM and above 100 µM.
